Assay results reported in US8193224B2, “Medicinal composition for prevention or treatment of parasitic protozoan infection” (Fujifilm Corporation, priority 2004, dated 2012).

Tests used:
[1] = system: Trypanosoma cruzi (Tulahuen C2C4 strain); assay: American trypanosome protozoa growth inhibition screening test; assay type: cell-based; settings: for EC50: Trypanosoma cruzi, Tulahuen C2C4 strain in rat L6 cells, 96 hours, CPRG/Nonidet, read-out: 50% growth inhibition concentration Trypanosoma cruzi; for Selective toxicity: chemotherapy index = EC50 rat L6 cells / EC50 American trypanosome protozoa
Description: In the present example, amastigote and trypomastigote infected with rat L6 cells of protozoa of Trypanosoma cruzi (Tulahuen C2C4 strain) were used. As medium used in the test, RPMI 1640 medium containing L6 cells was supplemented so that L-glutamine (200 mM) becomes 1%, fetal bovine serum becomes 10%, which was cultured under CO2 concentration 5%, at 37° C.
The compounds of the present invention to be used in the test and the positive target agent (benznidazole) were dissolved in DMSO to make a test solution of a predetermined concentration. A medium containing 5×10^3 protozoa was added to wells of a 96-well culture plate, and pre-cultured for 48 hours. After replacing the medium, test solution containing drug of a predetermined concentration or a drug-free DMSO was added. Test solutions were taken by duplicates. After culturing the culture plate in an incubator for 96 hours, growth inhibition activity was tested. Test was conducted as follows.
50 μL of CPRG/Nonidet was added to each well, and allowed to rest for 2 to 6 hours. Next, the culture plate was placed on a fluorescent micro-plate reader, and the absorbance was measured at 540 nm. Growth inhibition rate was calculated with the following formula based on the protozoan infection rate which was obtained by calculating trypanosome infection rate of the test solution added group and control group, to obtain a 50% growth inhibition concentration (EC50). Growth inhibition rate (%)={1−(b−a)/(c−a)}×100 a: early infection rate b: infection rate when test solution was added c: infection rate of the control

[2] = Growth inhibition test of rat L6 cells; assay type: cell-based; settings: L6 cells (rat skeletal myoblast), Alamar Blue (Table 2), read-out: 50% growth inhibition concentration Cytotoxicity L6
Description: Rat derived-L6 cells (rat skeletal myoblast cell) were used. As medium, RPMI1640 medium was supplemented so that L-glutamin (200 mM) is 1%, and fetal bovine serum 10%, and the medium was cultured under CO2 concentration 5%, at 37° C. The compounds of the present invention and the target drugs to be used in the test were dissolved in DMSO, to make a test solution of a predetermined concentration. Pre-culture was conducted and medium containing cells which have entered the logarithmic growth phase was taken to wells of a 96-well culture plate. Then, a test solution containing drug of a predetermined concentration or a drug-free DMSO was added. Test solutions were taken by duplicates. Culture plate was cultured for 72 hours in an incubator, to test the growth inhibition activity. Test was conducted as follows.
10 μl of Alamar Blue aqueous solution was added to each well, and the resultant was further cultured for 2 hours. Next, the culture plate was placed on a fluorescent micro-plate reader (Spectramax Gemeni XS; US Molecular Device), radiated at an excited wavelength of 536 nm. Fluorescent intensity was measured at 588 nm, and residual rate of L6 cells of the test solution added group, and that of the control was calculated. Based on the cell residual rate obtained in the above, growth inhibition rate to L6 cells was calculated, to obtain a 50% growth inhibition concentration (EC50). Growth inhibition rate (%)={(C−A)/(B−A)}×100 A: primary cell count B: cell count of control, 3 days after C: cell count of wells added with a sample, 3 days after […]

Structure (SMILES) | EC50 [1] [µM] | Selective toxicity [1] | EC50 at 72 h [2] [µM]
CCN1/C(=C/C=c2\s/c(=C\c3sc4c5ccccc5ccc4[n+]3CC)n(CC)c2=O)Sc2ccc3ccccc3c21 [A-1] | 5.1 | 5.9 | 30
CCN1/C(=C/C=c2\s/c(=C\C3=[N+](CC)CCS3)n(CC)c2=O)C=Cc2ccccc21 [A-10] | 0.16 | 130 | 20
CCN1C(C)=CS/C1=C\C=c1/s/c(=C\c2sc3ccccc3[n+]2CC)n(CC)c1=O [A-15] | 0.98 | 22 | 22
